We go through 29 molecules from ChEMBL document CHEMBL1269003, “Design and synthesis of tetrahydropyridothieno[2,3-d]pyrimidine scaffold based epidermal growth factor receptor (EGFR) kinase inhibitors: the role of side chain chirality and Michael acceptor group for maximal potency” (J Med Chem, 2010).

In data set [1] the test system is Epidermal growth factor receptor (Homo sapiens), P00533 [L858R,T790M]. To be noted: 10 uM.
A short description of data set [2]: Antiproliferative activity against human HCC827 cells by MTS assay. Background: Tetrazolium dyes change colour on reduction, which living cells bring about.
Data set [3] concerns the target T1, Epidermal growth factor receptor (Homo sapiens, UniProt P00533).
For data set [4], the target named is T1, Epidermal growth factor receptor. Description: Inhibition of EGFR at 20 uM.
Data set [5] addresses Epidermal growth factor receptor (Homo sapiens, UniProt P00533, L858R/T790M).
In data set [6] the test system is HCC827. Description: Antitumor activity against human HCC827 cells xenografted in mouse assessed as reduction of tumor growth at 100 mg/kg, iv for 5 days a week measured after 2 weeks. Format: functional, organism-based. Set-up: dose 100 mg/kg.
Data set [7] deals with T1, Epidermal growth factor receptor. Conditions: 20 uM.
Data set [8] is described as follows: AUC (0 to infinity) in Sprague-Dawley rat at 5 mg/kg, iv. Set-up: time infinity, dose 5 mg/kg, route intravenous. To be noted: plasma. Format: ADME, organism-based.
Data set [9] concerns HCC827. The experiment in a line: Antitumor activity against human HCC827 cells xenografted in mouse assessed as reduction of tumor growth at 5 to 15 mg/kg, iv for 5 days a week measured after 2 weeks. Format: functional, organism-based.
In a further data set the test system is Rattus norvegicus. Description: Half life in Sprague-Dawley rat at 5 mg/kg, iv. Format: ADME, organism-based. To be noted: in vivo. Set-up: dose 5 mg/kg, route intravenous.

Activity calls are given as the source filed them. The calls are words filed in the database; no cut-off is given here. Bounds are passed on as bounds.

Sequence of Epidermal growth factor receptor (Homo sapiens), P00533 [L858R,T790M] (P00533 whole entry T790M/L858R, looked up): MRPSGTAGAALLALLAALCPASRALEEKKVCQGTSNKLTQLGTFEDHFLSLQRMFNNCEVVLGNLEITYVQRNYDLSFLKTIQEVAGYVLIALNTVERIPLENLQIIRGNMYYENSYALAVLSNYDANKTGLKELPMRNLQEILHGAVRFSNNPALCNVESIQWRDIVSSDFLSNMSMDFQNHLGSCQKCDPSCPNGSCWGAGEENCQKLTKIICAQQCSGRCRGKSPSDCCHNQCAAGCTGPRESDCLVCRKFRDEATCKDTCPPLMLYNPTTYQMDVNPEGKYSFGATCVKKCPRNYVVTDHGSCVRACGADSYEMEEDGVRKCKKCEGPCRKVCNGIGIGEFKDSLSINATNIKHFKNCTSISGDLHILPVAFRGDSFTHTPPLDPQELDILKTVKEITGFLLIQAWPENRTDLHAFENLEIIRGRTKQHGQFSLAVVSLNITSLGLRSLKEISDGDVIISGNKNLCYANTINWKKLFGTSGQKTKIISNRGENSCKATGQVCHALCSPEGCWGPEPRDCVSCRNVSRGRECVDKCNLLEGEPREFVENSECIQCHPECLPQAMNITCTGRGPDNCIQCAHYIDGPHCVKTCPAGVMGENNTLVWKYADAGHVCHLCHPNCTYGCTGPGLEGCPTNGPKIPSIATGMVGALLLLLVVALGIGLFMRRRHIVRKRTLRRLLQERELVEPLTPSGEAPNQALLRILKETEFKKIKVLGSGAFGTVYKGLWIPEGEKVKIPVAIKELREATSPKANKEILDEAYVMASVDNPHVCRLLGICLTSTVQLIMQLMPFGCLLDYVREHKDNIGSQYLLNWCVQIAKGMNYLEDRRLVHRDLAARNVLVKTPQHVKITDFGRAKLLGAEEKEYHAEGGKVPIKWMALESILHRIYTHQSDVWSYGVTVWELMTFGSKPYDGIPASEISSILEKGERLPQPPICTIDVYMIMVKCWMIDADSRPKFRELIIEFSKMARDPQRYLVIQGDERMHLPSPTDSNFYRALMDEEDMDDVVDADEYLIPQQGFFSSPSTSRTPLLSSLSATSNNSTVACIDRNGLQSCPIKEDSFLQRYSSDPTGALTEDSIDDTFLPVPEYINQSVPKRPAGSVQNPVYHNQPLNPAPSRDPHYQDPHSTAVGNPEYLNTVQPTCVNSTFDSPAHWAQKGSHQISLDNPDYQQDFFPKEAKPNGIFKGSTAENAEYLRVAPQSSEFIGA
Sequence of Epidermal growth factor receptor (Homo sapiens, UniProt P00533, L858R/T790M) (P00533 25-1210 T790M/L858R limits assumed): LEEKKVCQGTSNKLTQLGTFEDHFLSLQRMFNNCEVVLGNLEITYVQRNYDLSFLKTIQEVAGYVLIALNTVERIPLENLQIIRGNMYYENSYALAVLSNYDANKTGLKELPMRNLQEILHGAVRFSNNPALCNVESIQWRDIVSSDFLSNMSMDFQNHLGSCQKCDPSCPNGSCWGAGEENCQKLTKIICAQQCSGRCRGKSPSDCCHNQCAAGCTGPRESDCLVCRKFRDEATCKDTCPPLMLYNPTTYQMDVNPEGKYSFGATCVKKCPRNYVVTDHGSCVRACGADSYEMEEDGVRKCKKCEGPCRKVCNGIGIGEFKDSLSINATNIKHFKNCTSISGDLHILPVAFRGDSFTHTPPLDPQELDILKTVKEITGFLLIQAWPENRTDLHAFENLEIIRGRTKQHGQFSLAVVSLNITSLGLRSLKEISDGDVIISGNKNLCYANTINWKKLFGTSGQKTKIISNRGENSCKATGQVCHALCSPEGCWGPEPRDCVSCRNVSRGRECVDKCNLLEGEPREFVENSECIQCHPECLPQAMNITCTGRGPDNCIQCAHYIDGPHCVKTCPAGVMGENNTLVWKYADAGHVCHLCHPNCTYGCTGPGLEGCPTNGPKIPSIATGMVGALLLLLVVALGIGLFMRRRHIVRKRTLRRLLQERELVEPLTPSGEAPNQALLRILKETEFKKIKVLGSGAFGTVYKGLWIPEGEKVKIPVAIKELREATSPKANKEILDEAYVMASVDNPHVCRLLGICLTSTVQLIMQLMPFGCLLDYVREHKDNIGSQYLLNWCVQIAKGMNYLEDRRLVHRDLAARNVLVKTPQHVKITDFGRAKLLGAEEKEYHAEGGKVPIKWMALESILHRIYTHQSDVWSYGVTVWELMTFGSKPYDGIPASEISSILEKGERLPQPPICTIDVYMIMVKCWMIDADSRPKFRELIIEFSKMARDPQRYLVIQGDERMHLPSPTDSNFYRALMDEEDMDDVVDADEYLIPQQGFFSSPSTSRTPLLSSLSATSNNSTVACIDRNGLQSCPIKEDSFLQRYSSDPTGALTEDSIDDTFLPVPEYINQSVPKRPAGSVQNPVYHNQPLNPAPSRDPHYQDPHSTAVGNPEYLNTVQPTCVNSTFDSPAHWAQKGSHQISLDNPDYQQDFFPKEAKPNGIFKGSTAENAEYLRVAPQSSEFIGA
T1 sequence (P00533 whole entry): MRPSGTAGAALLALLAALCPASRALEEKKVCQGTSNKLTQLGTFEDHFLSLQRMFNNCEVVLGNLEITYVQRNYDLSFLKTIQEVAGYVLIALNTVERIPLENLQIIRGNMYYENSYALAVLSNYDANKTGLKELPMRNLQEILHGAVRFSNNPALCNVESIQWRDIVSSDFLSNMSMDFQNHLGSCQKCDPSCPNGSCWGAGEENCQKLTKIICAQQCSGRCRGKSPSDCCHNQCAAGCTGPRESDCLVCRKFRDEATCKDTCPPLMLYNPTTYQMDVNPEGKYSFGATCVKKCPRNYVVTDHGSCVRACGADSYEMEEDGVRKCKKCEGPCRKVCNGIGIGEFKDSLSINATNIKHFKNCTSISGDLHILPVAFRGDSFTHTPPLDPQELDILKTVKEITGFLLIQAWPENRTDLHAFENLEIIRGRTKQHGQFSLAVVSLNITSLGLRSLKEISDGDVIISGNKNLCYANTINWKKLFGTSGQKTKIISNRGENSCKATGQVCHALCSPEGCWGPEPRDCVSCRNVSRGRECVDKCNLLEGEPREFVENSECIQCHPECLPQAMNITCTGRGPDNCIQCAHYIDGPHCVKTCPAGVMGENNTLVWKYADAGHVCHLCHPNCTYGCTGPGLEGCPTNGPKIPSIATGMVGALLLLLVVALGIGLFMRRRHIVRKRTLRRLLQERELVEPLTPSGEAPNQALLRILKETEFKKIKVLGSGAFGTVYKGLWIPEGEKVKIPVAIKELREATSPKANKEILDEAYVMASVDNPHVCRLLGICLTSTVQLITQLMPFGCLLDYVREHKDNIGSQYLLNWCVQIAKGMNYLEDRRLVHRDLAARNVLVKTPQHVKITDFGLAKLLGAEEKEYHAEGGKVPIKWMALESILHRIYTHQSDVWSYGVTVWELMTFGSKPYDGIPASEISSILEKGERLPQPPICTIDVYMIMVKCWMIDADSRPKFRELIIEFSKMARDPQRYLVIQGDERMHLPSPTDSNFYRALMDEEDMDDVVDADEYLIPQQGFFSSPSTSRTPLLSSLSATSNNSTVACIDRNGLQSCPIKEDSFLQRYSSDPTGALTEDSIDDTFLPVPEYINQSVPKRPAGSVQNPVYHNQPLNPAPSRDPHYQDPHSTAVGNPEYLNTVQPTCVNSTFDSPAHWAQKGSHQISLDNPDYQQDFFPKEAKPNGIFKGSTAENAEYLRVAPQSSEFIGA

Turning to `OC[C@@H](Nc1ncnc2sc3c(c12)CCCC3)c1ccccc1`, in data set [1], the inhibition is below 50%. Besides, the IC50 in [2] was determined as 198 nM; in [3], 720 nM.

In data set [1], `OC[C@@H](Nc1ncnc2sc3c(c12)CCNC3)c1ccccc1` registered an inhibition below 50%. In data set [4], this molecule returned an IC50 above 20000 nM.

Consider `C=CC(=O)N1CCc2c(sc3ncnc(N[C@H](C)c4ccccc4)c23)C1`, for which the IC50 in [5] amounted to 739 nM; in data set [2], 19 nM; in data set [3], 20 nM.

In data set [1], `CCC(=O)N1CCc2c(sc3ncnc(N[C@H](CO)c4ccccc4)c23)C1` returned an inhibition below 50%. In data set [4], this molecule showed an IC50 above 20000 nM.

Molecule `OC[C@@H](Nc1ncnc2oc(-c3ccccc3)c(-c3ccccc3)c12)c1ccccc1` registered an IC50 in [2] of 518 nM.

In turn, `CN(C)C/C=C/C(=O)N1CCc2c(sc3ncnc(N[C@@H](CO)c4ccccc4)c23)C1` displayed an inhibition in data set [1] below 50%. This molecule also registered an IC50 in [4] above 20000 nM.

`C=CC(=O)N1CCc2c(sc3ncnc(N[C@H](CC)c4ccccc4)c23)C1`: the IC50 came to 2200 nM in [5], 24 nM in data set [2] and 46 nM in data set [3].

As for `COc1cc2ncnc(Nc3ccc(F)c(Cl)c3)c2cc1OCCCN1CCOCC1`, the result with HCC827 [6] was Active.

Take `C[C@@H](Nc1ncnc2sc3c(c12)CCN(C(=O)/C=C/CN(C)C)C3)c1ccccc1`: the IC50 worked out at 596 nM in [5], 2 nM in [2] and 12 nM in [3].

In turn, `c1ccc(CCNc2ncnc3sc4c(c23)CCCC4)cc1` yielded an inhibition in [7] of 44.3%.

In the case of `OC[C@@H](Nc1ncnc2sc3c(c12)CCC3)c1ccccc1`, the IC50 in data set [2] was found to be 324 nM; in [3], 1090 nM.

`C=CS(=O)(=O)N1CCc2c(sc3ncnc(N[C@H](CO)c4ccccc4)c23)C1`: the IC50 in data set [5] amounted to 2480 nM; in data set [2] it was 273 nM; in [3], 91 nM.

Consider `CCN(CC)C/C=C/C(=O)N1CCc2c(sc3ncnc(NC(CO)c4ccccc4)c23)C1` (single isomer, unassigned), for which the IC50 worked out at 930 nM in data set [5], 8 nM in data set [2] and 9 nM in data set [3].

In [1], `O=C(/C=C/c1ccccc1)N1CCc2c(sc3ncnc(N[C@H](CO)c4ccccc4)c23)C1` registered an inhibition below 50%. In data set [3], this molecule gave an IC50 of 3500 nM.

`COc1ccc(CNc2ncnc3sc4c(c23)CCCC4)cc1`: the inhibition in data set [7] was found to be 1.1%.

For `O=C(/C=C/CN1CCOCC1)N1CCc2c(sc3ncnc(NC(CO)c4ccccc4)c23)C1` (single isomer, unassigned), the IC50 came to 1400 nM in [5], 4 nM in data set [2] and 21 nM in data set [3].

With `C[C@@H](Nc1ncnc2sc3c(c12)CCCC3)c1ccccc1`, the IC50 in data set [3] was above 3240 nM.

For the molecule `Fc1ccc(CNc2ncnc3sc4c(c23)CCCC4)cc1`, the inhibition in data set [7] was 52.7%.

In data set [1], `CN1CCN(C/C=C/C(=O)N2CCc3c(sc4ncnc(N[C@H](CO)c5ccccc5)c34)C2)CC1` had an inhibition below 50%. Moreover, the values for the IC50 in data set [2] and in [3] were 38 nM and 89 nM, respectively.

`C=CC(=O)N1CCc2c(sc3ncnc(N[C@@H](CO)c4ccccc4)c23)C1` had an inhibition in data set [1] below 50%. 3060 nM corresponded to half-maximal inhibition in data set [3] (IC50).

As for `CN(C)C/C=C/C(=O)N1CCc2c(sc3ncnc(N[C@H](CO)c4ccccc4)c23)C1`, the results for the IC50 in [5], in data set [2] and in [3] were 305 nM, 2 nM and 70 nM, respectively. The molecule also had an AUC(0-inf) in data set [8] of 337 ng·h/mL. Besides, in the data set with HCC827 [9], the result was Active. Besides, the t1/2 in the data set with Rattus norvegicus was 1.4 h.

Take `OC[C@H](Nc1ncnc2sc3c(c12)CCCC3)c1ccccc1`: the IC50 in data set [4] was above 20000 nM.

Take `c1ccc(CNc2ncnc3sc4c(c23)CCCC4)cc1`: the inhibition in data set [1] is below 50%; in data set [7], 76.9%. Besides, the IC50 in data set [2] was above 10000 nM.

In [4], `OCCNc1ncnc2sc3c(c12)CCCC3` gave an IC50 above 20000 nM.

With `C=CC(=O)N1CCc2c(sc3ncnc(N[C@H](CO)c4ccccc4)c23)C1`, the IC50 in data set [5] worked out at 100 nM; in data set [2], 3 nM; in data set [3], 8 nM.

`CC#CC(=O)N1CCc2c(sc3ncnc(N[C@H](CO)c4ccccc4)c23)C1`: the IC50 is above 10000 nM in [5] and 1270 nM in data set [3]. The same molecule displayed an inhibition in [1] below 50%.

On to `c1ccc(CNc2ncnc3sc4c(c23)CCC4)cc1`, for which, in data set [7], the inhibition amounted to 69.1%.

Take `CN(C)C/C=C/C(=O)N1CCc2c(sc3ncnc(NC(CO)Cc4ccccc4)c23)C1` (single isomer, unassigned): the IC50 in data set [5] came to 4110 nM; in [2] it was 32 nM; in data set [3] it was 149 nM.

Take `CN(C)C/C=C/C(=O)N1CCc2c(sc3ncnc(NCCO)c23)C1`: the inhibition in data set [1] is below 50%. In [3], the midpoint of inhibition, the IC50, lay at 4880 nM.

Usually inhibition stands for the percentage by which the read-out fell short of the control. Usually IC50 stands for the point on the concentration scale where inhibition reaches its midpoint. One may read the AUC(0-inf) as the area under the concentration-time curve extrapolated to infinity.
